Results: ChEMBL document CHEMBL4340512, “Discovery of novel triazolo[4,3-b]pyridazin-3-yl-quinoline derivatives as PIM inhibitors” (Eur J Med Chem, 2019)

How the values were obtained:
U-87 MG = test: Antiproliferative activity against human U87MG cells incubated for 72 hrs by CellTiter-Glo luminescence assay; type: functional, U-87MG ATCC
JeKo-1 = test: Antiproliferative activity against human JeKo1 cells incubated for 72 hrs by CellTiter-Glo luminescence assay; type: functional; settings: JeKo-1, 72 h
SK-MEL19 = test: Antiproliferative activity against human SK-MEL-19 cells incubated for 72 hrs by CellTiter-Glo luminescence assay; type: functional; settings: SK-MEL19, 72 h
MV4-11 = test: Antiproliferative activity against human MV4-11 cells incubated for 72 hrs by CellTiter-Glo luminescence assay; type: functional; settings: MV4-11, 72 h
PC-3 = test: Antiproliferative activity against human PC3 cells incubated for 72 hrs by CellTiter-Glo luminescence assay; type: functional; settings: PC-3, 72 h
MDA-MB-231 = test: Antiproliferative activity against human MDA-MB-231 cells incubated for 72 hrs by CellTiter-Glo luminescence assay; type: functional; settings: MDA-MB-231, 72 h
MIA PaCa-2 = test: Antiproliferative activity against human MIAPaCa2 cells incubated for 72 hrs by CellTiter-Glo luminescence assay; type: functional; settings: MIA PaCa-2, 72 h
T47D = test: Antiproliferative activity against human T47D cells incubated for 72 hrs by CellTiter-Glo luminescence assay; type: functional
DU-145 = test: Antiproliferative activity against human DU145 cells incubated for 72 hrs by CellTiter-Glo luminescence assay; type: functional; settings: DU-145, 72 h
HCT-116 = test: Antiproliferative activity against human HCT116 cells incubated for 72 hrs by CellTiter-Glo luminescence assay; type: functional; settings: HCT-116, 72 h
Raji = test: Antiproliferative activity against human Raji cells incubated for 72 hrs by CellTiter-Glo luminescence assay; type: functional

Row | GI50 (U-87 MG) [µM] | GI50 (SK-MEL19) [µM] | GI50 (MV4-11) [µM] | GI50 (PC-3) [nM] | GI50 (MDA-MB-231) [µM] | GI50 (MIA PaCa-2) [µM] | GI50 (T47D) [µM] | GI50 (DU-145) [µM] | GI50 (HCT-116) [µM] | GI50 (Raji) [µM] | Structure (SMILES) | GI50 (JeKo-1) [µM]
1 | 6 | 6 | 3 | 3000 | 12 | 12 | 3 | – | – | – | CS(=O)(=O)N1CCN(Cc2cc3nc(-c4cccc5[nH]ncc45)nc(N4CCOCC4)c3s2)CC1 [PICTILISIB] | 5
2 | 10 | 5 | 10 | – | 20 | 10 | 40 | 20 | 20 | – | CS(=O)(=O)CCNCc1ccc(-c2ccc3ncnc(Nc4ccc(OCc5cccc(F)c5)c(Cl)c4)c3c2)o1 [LAPATINIB] | 5
3 | – | 30 | – | – | 30 | – | – | – | – | 30 | CC(=O)c1c(C)c2cnc(Nc3ccc(N4CCNCC4)cn3)nc2n(C2CCCC2)c1=O [PALBOCICLIB] | 30
